According to patent US20240342203A1, “COMPOSITIONS FOR ORAL CANCER OR AN OROPHARYNGEAL CANCER” (GR BIOSYSTEMS, INC., priority 2020, published 2024):
Entries after “also recorded” stand apart in the source; their conditions may differ.

Tests used:
MMP-2 = experiment: Western blot of MMP-2 protein expression/release in Cal-27 cells treated with PGG; format: cell-based; details: 48 hours, cell media
Procedure: (§1) Squamous cell carcinoma cells (Cal 27) were purchased from ATCC (CRL-2095) and grown in DMEM with Glutamax, 10% FBS and Penicillin/Streptomycin (1055-024, 15140-122, 10438-018 Gibco-ThermoFischer Scientific) and kept at 37° C. in a humidified air chamber with 5% CO2. Cells were seeded at 3×10^5 cells/flask for the experiments and then grown to confluency. Cells between 3 and 10 passages were used for all experiments. 1,2,3,4,6-Penta-O-galloyl-β-D-glucose (G7548, Sigma-Aldrich) was dissolved in dimethylsulfoxide (DMSO) to obtain a 100 mM stock solution. Subsequent dilutions were done using water, and no flask contained more than 0.5 μL of DMSO (0.01%). […] During the protein extraction, media were collected, flash frozen and saved for BCA, Western Blot, and ELISA analysis. […] The proteins were detected and visualized by fluorescence using the LI-COR Odyssey Classic Infrared Imaging system (LI-COR Biosciences). Densitometry analysis of specific bands was performed with the Image Studio software provided by LI-COR Biosciences and the images analyzed using ImageStudio (LI-COR Biosciences). Statistical analysis, including one-way ANOVA with Dunnett's Multiple Comparison Test and Bonferroni, was done using GraphPad Prism 7 (Graph-Pad Software, La Jolla, CA, USA). p values were calculated using the unpaired two-sided Student's t test to compare groups, with statistical significance set at p<0.05.

MMP-9 = experiment: Western blot of MMP-9 protein expression/secretion in Cal-27 cells treated with PGG; format: cell-based; details: 48 hours
Procedure: as §1

MMP-13 = experiment: Western blot of MMP-13 protein expression/release in Cal-27 cells treated with PGG; format: cell-based; details: 48 hours
Procedure: as §1

Stat3 = experiment: Western blot of Stat3 and pStat3 in Cal-27 cells treated with PGG; format: cell-based; details: 48 hours
Procedure: as §1

MMP-2 gene = experiment: Real time quantitative PCR of MMP-2 gene expression in Cal-27 cells; format: cell-based, Human
Procedure: (§2) Squamous cell carcinoma cells (Cal 27) were purchased from ATCC (CRL-2095) and grown in DMEM with Glutamax, 10% FBS and Penicillin/Streptomycin (1055-024, 15140-122, 10438-018 Gibco-ThermoFischer Scientific) and kept at 37° C. in a humidified air chamber with 5% CO2. Cells were seeded at 3×10^5 cells/flask for the experiments and then grown to confluency. Cells between 3 and 10 passages were used for all experiments. 1,2,3,4,6-Penta-O-galloyl-β-D-glucose (G7548, Sigma-Aldrich) was dissolved in dimethylsulfoxide (DMSO) to obtain a 100 mM stock solution. Subsequent dilutions were done using water, and no flask contained more than 0.5 μL of DMSO (0.01%). […] After washing the tissue culture with 1× phosphate buffered saline (PBS), the cells were lysed, and the RNA purified using a Qiagen RNeasy mini kit using the manufacturer's recommended protocol. All samples were treated with Qiagen DNase. One microgram of RNA was used for reverse transcription and subsequent SYBR® Green real time PCR for the genes of interest as previously described. […] Real time quantitative PCR was performed using an Applied Biosciences StepOne plus instrument and analyzed with StepOne software v2.3. The relative amounts of transcripts from each gene were normalized to reference gene GAPDH and calculated as follows: ΔΔCT=the average ΔCT of […]−the average ΔCT of […], and their fold difference=2−ΔΔCT.

MMP-9 gene = experiment: Real time quantitative PCR of MMP-9 gene expression in Cal-27 cells; format: cell-based, Human; details: any PGG dose (1, 2.5, 5, 10 and 20 μM), n=4, p>0.05
Procedure: as §2

MMP-13 gene = experiment: Real time quantitative PCR of MMP-13 gene expression in Cal-27 cells; format: cell-based, Human; details: 10 or 20 μM PGG, p<0.05 and p<0.001
Procedure: as §2

MMP-14 gene = experiment: Real time quantitative PCR of MMP-14 gene expression in Cal-27 cells; format: cell-based, Human; details: PGG 10-20 μM
Procedure: as §2

Cal 27 cells = experiment: Transmembrane/Boyden Matrigel invasion assay; format: cell-based; details: for percentage of cells invading the membrane compared with untreated control: 24 hour treatment; for Number of cells invading through Matrigel: 24 hour
Procedure: Squamous cell carcinoma cells (Cal 27) were purchased from ATCC (CRL-2095) and grown in DMEM with Glutamax, 10% FBS and Penicillin/Streptomycin (1055-024, 15140-122, 10438-018 Gibco-ThermoFischer Scientific) and kept at 37° C. in a humidified air chamber with 5% CO2. Cells were seeded at 3×10^5 cells/flask for the experiments and then grown to confluency. Cells between 3 and 10 passages were used for all experiments. Transmembrane/Boyden assay plates with Matrigel were purchased from Corning. DMEM with 10% FBS was used as a chemoattractant in the lower chamber while the cells in the upper chamber were cultured in DMEM with 1% FBS. Wells were prepared with different concentrations of PGG (0-10 μM) and left to incubate for 24 hour. After 24 hour media has discarded and the cells invading the Matrigel were counted according to established protocols.

TNF-α = details: doses as low as 5 μM; cited from earlier work
[1] = tested on: peripheral blood mononuclear cells (PBMCs); details: PBMCs treated with PGG; cited from earlier work
[2] = tested on: toll-like receptors 4 (TLR4); details: peritoneal and colonic macrophages; cited from earlier work
MyD88 adaptor protein = details: peritoneal and colonic macrophages; cited from earlier work

SMILES: O=C(OC[C@H]1O[C@@H](OC(=O)c2cc(O)c(O)c(O)c2)[C@H](OC(=O)c2cc(O)c(O)c(O)c2)[C@@H](OC(=O)c2cc(O)c(O)c(O)c2)[C@@H]1OC(=O)c1cc(O)c(O)c(O)c1)c1cc(O)c(O)c(O)c1 [PGG, 1,2,3,4,6-penta-O-galloyl-β-D-glucose]
- MMP-2 expression vs non-treated group (MMP-2; Cal-27 cells, 10 μM PGG, n=4, p<0.01): significantly decreased; also recorded: significantly lower
- MMP-2 expression vs non-treated group (MMP-2; Cal-27 cells, 1, 2.5 or 5 μM PGG, n=4, p>0.05): not significantly different
- MMP-9 expression vs non-treated group (MMP-9; 1 or 2.5 μM PGG, normalized to Histone H3, n=4, p>0.05): not significantly different
- MMP-9 expression vs non-treated group (MMP-9; 5 or 10 μM PGG, normalized to Histone H3, n=4, p<0.05 and p<0.01): significantly decreased; also recorded: significantly lower
- MMP-13 expression vs non-treated group (MMP-13; Cal-27 cells, 10 μM PGG, normalized to Histone H3, n=4, p<0.01): significantly decreased; also recorded: significantly lower
- MMP-13 expression vs non-treated group (MMP-13; Cal-27 cells, 1, 2.5 or 5 μM PGG, normalized to Histone H3, n=4, p>0.05): not significantly different
- Stat3 phosphorylation (pStat3) (Stat3; PGG at different concentrations, normalized to Histone H3, n=4, p<0.0001): significantly decreases; also recorded: decrease of Stat3 phosphorylation
- Non-phosphorylated / total Stat3 vs non-treated cells (Stat3; PGG at varying concentrations, n=4, p<0.0001): significantly higher; also recorded: increase in total Stat3
- MMP-2 gene expression (mRNA) (MMP-2 gene; PGG 5 and 10 μM, GAPDH housekeeping, n=4, p<0.0001): significantly decreased
- MMP-2 gene expression (mRNA) vs non-treated (MMP-2 gene; PGG 10-20 μM): reduces
- MMP-9 gene expression (mRNA) vs non-treated group (MMP-9 gene): not significantly different; also recorded: did not significantly decrease
- MMP-13 gene expression (mRNA) (MMP-13 gene): decreased; also recorded: reduces
- MMP-14 gene expression (mRNA) vs non-treated (MMP-14 gene): reduces
- percentage of cells invading the membrane compared with untreated control (Cal 27 cells; 0.5 μM PGG): 44.5%
- percentage of cells invading the membrane compared with untreated control (Cal 27 cells; 10 μM PGG (maximum effect)): 22.3%
- Number of cells invading through Matrigel (Cal 27 cells; PGG 0.5 and 1 μM, n=4, p<0.001): significantly lower
- Number of cells invading through Matrigel (Cal 27 cells; PGG 2.5, 5 and 10 μM, n=4, p<0.0001): significantly lower
- suppression of LPS-induced TNF-α production (TNF-α): ≤ 90%
- production of TNF-α and IL-1β [1]: resulted in the production of TNF-α and IL-1β
- interference with binding of LPS to TLR4 [2]: did not interfere
- interaction with MyD88 adaptor protein; effect on TNF-α, IL-1β and IL-6 production (MyD88 adaptor protein): interacted directly with MyD88 adaptor protein thereby decreasing the production of TNF-α, IL-1β and IL-6
